From PMC5919688, “Cyclic di-AMP regulation of osmotic homeostasis is essential in Group B Streptococcus” (PLoS Genetics, 2018)

Legend:
[1] = system: T1, BusR (rBusR) (Streptococcus agalactiae NEM316), ORF:6b20ee22; test: EMSA; conditions: 25 mM Na2HPO4/NaH2PO4 pH 8, 50 mM NaCl, 2 mM MgCl2, 1 mM DTT, 10% glycerol, 0.1 ug/ul poly(dI-dC), 0.02 ug/ul BSA, 20 min room temperature; 6% PAGE at 4 C
T1 sequence: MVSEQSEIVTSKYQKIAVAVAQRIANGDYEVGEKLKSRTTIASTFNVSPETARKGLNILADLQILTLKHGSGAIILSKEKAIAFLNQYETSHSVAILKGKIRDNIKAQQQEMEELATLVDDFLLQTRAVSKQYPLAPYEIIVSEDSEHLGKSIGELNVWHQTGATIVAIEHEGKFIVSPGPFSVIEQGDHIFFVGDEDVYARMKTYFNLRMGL

DacA (rDacA) = target: T2, DacA (rDacA) (Streptococcus agalactiae, UniProt Q8E051); test: RP-HPLC of c-di-AMP formation; type: biochemical; conditions: 2.5 uM rDacA, 1 mM ATP, 50 mM Tris pH 8.5, 100 mM NaCl, 10 mM MnCl2, 37 C
T2 construct: amino acids 96-243, transmembrane domain deleted, N-terminal 6xHis (pET28a), E. coli Bli5, purified
T2 sequence (Q8E051 96-243): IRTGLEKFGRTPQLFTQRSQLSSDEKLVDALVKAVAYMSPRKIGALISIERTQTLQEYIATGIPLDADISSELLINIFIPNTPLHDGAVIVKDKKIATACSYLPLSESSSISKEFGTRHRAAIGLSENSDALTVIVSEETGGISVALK

KtrA (Gbs1678) = target: T3, KtrA (Gbs1678) (Streptococcus agalactiae, UniProt Q8E3S8); test: DRaCALA, […]-labelled c-di-AMP, whole E. coli extract; type: binding; conditions: […]P-c-di-AMP, […] Tris pH […] NaCl, […] MgCl2, room temperature; labelled compound; competition with […] cold nucleotide
T3 construct: full length, N-terminal His or His-MBP tag, expressed in E. coli Bli5, whole-cell extract
T3 sequence (Q8E3S8 1-223): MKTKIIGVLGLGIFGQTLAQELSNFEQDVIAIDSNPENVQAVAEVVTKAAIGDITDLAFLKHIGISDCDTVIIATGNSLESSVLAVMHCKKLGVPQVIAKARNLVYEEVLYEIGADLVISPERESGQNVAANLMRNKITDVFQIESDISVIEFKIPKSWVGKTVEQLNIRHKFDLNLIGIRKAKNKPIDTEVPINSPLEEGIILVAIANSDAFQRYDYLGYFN

OpuCA (Gbs0235) = target: T4, OpuCA (Gbs0235) (Streptococcus agalactiae, UniProt Q8E7C0); test: as above; type: binding; conditions: […]P-c-di-AMP, […] Tris pH […] NaCl, […] MgCl2, room temperature; labelled compound; competition with […] cold nucleotide
T4 construct: full length, N-terminal His-MBP tag (signal only with this tag), expressed in E. coli Bli5, whole-cell extract
T4 sequence (Q8E7C0 1-381): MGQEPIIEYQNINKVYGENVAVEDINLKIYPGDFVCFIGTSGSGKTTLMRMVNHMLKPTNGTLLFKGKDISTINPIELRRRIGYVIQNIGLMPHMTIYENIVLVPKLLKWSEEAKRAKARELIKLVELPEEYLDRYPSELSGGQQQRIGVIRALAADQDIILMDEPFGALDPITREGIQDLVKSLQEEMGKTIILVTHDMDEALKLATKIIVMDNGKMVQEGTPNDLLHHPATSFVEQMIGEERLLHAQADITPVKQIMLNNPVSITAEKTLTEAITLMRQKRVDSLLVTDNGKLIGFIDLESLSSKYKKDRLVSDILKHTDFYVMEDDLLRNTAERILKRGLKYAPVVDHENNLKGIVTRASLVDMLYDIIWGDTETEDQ

TrkH (Gbs1639) = target: T5, TrkH (Gbs1639) (Streptococcus agalactiae, UniProt Q8DYA0); test: as above; type: binding; conditions: 1 nM 32P-c-di-AMP, 40 mM Tris pH 7.5, 100 mM NaCl, 10 mM MgCl2, room temperature; labelled compound; competition with 200 uM cold nucleotide
T5 construct: gene SAG1590; full length, N-terminal His tag (detected by Western only with the His tag), expressed in E. coli Bli5, whole-cell extract
T5 sequence (Q8DYA0 1-449): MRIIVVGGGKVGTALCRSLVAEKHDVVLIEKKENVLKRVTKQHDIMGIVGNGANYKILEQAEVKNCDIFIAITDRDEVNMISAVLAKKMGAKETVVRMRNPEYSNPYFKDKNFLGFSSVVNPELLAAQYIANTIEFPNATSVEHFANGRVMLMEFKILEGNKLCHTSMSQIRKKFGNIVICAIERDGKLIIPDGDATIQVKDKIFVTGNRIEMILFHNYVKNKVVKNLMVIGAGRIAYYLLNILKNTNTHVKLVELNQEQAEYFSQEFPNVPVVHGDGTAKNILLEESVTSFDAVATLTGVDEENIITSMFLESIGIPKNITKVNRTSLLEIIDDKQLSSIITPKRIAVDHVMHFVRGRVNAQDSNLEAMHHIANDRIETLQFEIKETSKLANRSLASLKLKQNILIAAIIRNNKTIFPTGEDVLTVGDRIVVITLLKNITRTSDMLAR

BusR (Gbs1201) = target: T6, BusR (Gbs1201) (Streptococcus agalactiae, UniProt I7JWA3); test: as above; type: binding; conditions: 1 nM 32P-c-di-AMP, 40 mM Tris pH 7.5, 100 mM NaCl, 10 mM MgCl2, room temperature; labelled compound; competition with 200 uM cold nucleotide
T6 construct: gene BM110_ORF1201; full length (213 aa), N-terminal His or His-MBP tag, expressed in E. coli Bli5, whole-cell extract
T6 sequence (I7JWA3 1-213): T1 sequence

Row | Compound | binding [1] | RP-HPLC of c-di-AMP formation (DacA (rDacA)) | DRaCALA, 32P-labelled c-di-AMP, whole E. coli extract (KtrA (Gbs1678)) | DRaCALA, 32P-labelled c-di-AMP, whole E. coli extract (OpuCA (Gbs0235)) | DRaCALA, 32P-labelled c-di-AMP, whole E. coli extract (TrkH (Gbs1639)) | DRaCALA, 32P-labelled c-di-AMP, whole E. coli extract (BusR (Gbs1201))
1 | AGTTGTAATATTAATACTAATAAGTCTTTAAATAATTCAATAATGCCATAACAATAATGGTGTGGGCTAATTAAAATATCTCTAAGCAAAGGTGTTGACATAAAGAGACCATACATGATATTATAGTTATGTTCTGTTTCGGCAGTTTATTTTTTTGAGTAAAAAAGTGACTACCCTTTTACGATACTTTAACGTCACTTTATAGATAAGACACATAACCTTAAAAATAAGATACGAAATT (double strand) [PbusAB EMSA fragment (245 bp)] | binds | – | – | – | – | –
2 | Nc1ncnc2c1ncn2[C@@H]1O[C@H](COP(=O)(O)OP(=O)(O)OP(=O)(O)O)[C@@H](O)[C@H]1O [ATP] | – | the purified recombinant DacA protein produces c-di-AMP from two molecules of ATP | – | – | – | –
3 | Nc1ncnc2c1ncn2[C@@H]1O[C@@H]2COP(=O)(O)O[C@H]3[C@@H](O)[C@H](n4cnc5c(N)ncnc54)O[C@@H]3COP(=O)(O)O[C@H]2[C@H]1O [c-di-AMP] | – | the purified recombinant DacA protein produces c-di-AMP from two molecules of ATP | C-di-AMP binds to four proteins: KtrA (Gbs1678) | C-di-AMP binds to four proteins: KtrA (Gbs1678), TrkH (Gbs1639), OpuCA (Gbs0235) | C-di-AMP binds to four proteins: KtrA (Gbs1678), TrkH (Gbs1639) | C-di-AMP binds to four proteins: KtrA (Gbs1678), TrkH (Gbs1639), OpuCA (Gbs0235) and Gbs1201
